Laboratory results taken from ChEMBL document CHEMBL4118081, “Design, synthesis, and biological evaluation of optimized phthalazine derivatives as hedgehog signaling pathway inhibitors” (Eur J Med Chem, 2017).
Activity calls are given as the source filed them. No cut-off for these calls is given here.

Columns and labels:
[1] = Inhibition of hedgehog signaling pathway in mouse NIH/3T3 Light2 cells by Gli-luciferase reporter gene assay; type: cell-based; conditions: NIH3T3
Medulloblastoma cell [2] = experiment: Antiproliferative activity against Ptch+/- and p53-/- mouse medulloblastoma cells after 36 hrs by Brdu incorporation assay; type: functional, cell-based
[3] = Oral bioavailability in Sprague-Dawley rat at 10 mg/kg administered as single dose; type: ADME, organism-based; conditions: in vivo
[4] = Clearance in Sprague-Dawley rat at 2 mg/kg, iv administered as single dose; type: ADME, organism-based; conditions: in vivo
Medulloblastoma cell [5] = experiment: Antitumor activity against Ptch+/- and p53-/- mouse medulloblastoma cells allografted in athymic nude mouse assessed as tumor growth inhibition at 100 mg/kg, po qd administered daily via gavage for 13 days; type: functional, organism-based
Medulloblastoma cell [6] = experiment: Antitumor activity against Ptch+/- and p53-/- mouse medulloblastoma cells allografted in athymic nude mouse assessed as tumor growth inhibition at 50 mg/kg, po bid administered daily via gavage for 13 days; type: functional, organism-based
Mus musculus = organism: Mus musculus; experiment: Potency index, ratio of vismodegib IC50 to compound IC50 for hedgehog signaling pathway in mouse NIH/3T3 Light2 cells; type: cell-based
[7] = Half life in Sprague-Dawley rat at 2 mg/kg, iv administered as single dose; type: ADME, organism-based; conditions: in vivo
[8] = Volume of distribution at steady state in Sprague-Dawley rat at 2 mg/kg, iv administered as single dose; type: ADME, organism-based; conditions: in vivo, read-out: Vdss
[9] = Tmax in Sprague-Dawley rat at 10 mg/kg, po administered as single dose; type: ADME, organism-based; conditions: in vivo
[10] = AUC (0 to infinity) in Sprague-Dawley rat at 10 mg/kg, po administered as single dose; type: ADME, organism-based; set-up: dose 10 mg/kg, time infinity, route oral; conditions: in vivo
[11] = Cmax in Sprague-Dawley rat at 10 mg/kg, po administered as single dose; type: ADME, organism-based; set-up: dose 10 mg/kg, route oral; conditions: in vivo
[12] = AUC (0 to infinity) in Sprague-Dawley rat at 2 mg/kg, iv administered as single dose; type: ADME, organism-based; set-up: dose 2 mg/kg, time infinity, route intravenous; conditions: in vivo

Structure (SMILES)	IC50 [1]	other results
Cn1nccc1-c1nnc(N2CC(NC(=O)c3ccc(F)cc3C(F)(F)F)C2)c2ccccc12	> 1000 nM	
Cn1nccc1-c1nnc(N2CC3(CN(C(=O)c4ccc(F)cc4C(F)(F)F)C3)C2)c2ccccc12	442 nM	
Cc1ccc(-c2nnc(N3CC[C@H](NC(=O)c4ccc(F)cc4C(F)(F)F)C3)c3ccccc23)cc1	> 100 nM	
O=C(N[C@H]1CCN(c2nnc(-c3ccc(CO)cc3)c3ccccc23)C1)c1ccc(F)cc1C(F)(F)F	> 100 nM	
O=C(NC1CCN(c2nnc(-c3ccccc3Cl)c3ccccc23)C1)c1ccc(F)cc1C(F)(F)F (racemic)	6.51 nM	
Cn1nccc1Nc1nnc(N2CCC(NC(=O)c3ccc(F)cc3C(F)(F)F)C2)c2ccccc12 (racemic)	> 100 nM	
N#Cc1ccc(-c2nnc(N3CCC(NC(=O)c4ccc(F)cc4C(F)(F)F)C3)c3ccccc23)cc1 (racemic)	14 nM	
Cn1nccc1-c1nnc(N2CCCC(NC(=O)c3ccc(F)cc3C(F)(F)F)C2)c2ccccc12 (racemic)	> 1000 nM	
Cn1cc(-c2nnc(N3CCC(NC(=O)c4ccc(F)cc4C(F)(F)F)C3)c3ccccc23)cn1 (racemic)	> 100 nM	
Cn1nccc1-c1nnc(N2CCC(NC(=O)c3ccc(F)cc3C(F)(F)F)C2)c2ccccc12 (racemic)	4.75 nM	
O=C(NC1CCN(c2nnc(-c3ccncc3)c3ccccc23)C1)c1ccc(F)cc1C(F)(F)F (racemic)	10.7 nM	
Cn1nccc1-c1nnc(NC2CCN(C(=O)c3ccc(F)cc3C(F)(F)F)C2)c2ccccc12 (racemic)	> 1000 nM	
CN(C(=O)c1ccc(F)cc1C(F)(F)F)C1CCCN(c2nnc(-c3ccnn3C)c3ccccc23)C1 (racemic)	> 1000 nM	
O=C(NC1CCN(c2nnc(-c3ccc(Cl)cc3)c3ccccc23)C1)c1ccc(F)cc1C(F)(F)F (racemic)	10.9 nM	
O=C(NC1CCN(c2nnc(NCc3ccccc3)c3ccccc23)C1)c1ccc(F)cc1C(F)(F)F (racemic)	> 100 nM	
CC(=O)c1ccc(-c2nnc(N3CCC(NC(=O)c4ccc(F)cc4C(F)(F)F)C3)c3ccccc23)cc1 (racemic)	8.6 nM	
CN(C(=O)c1ccc(F)cc1C(F)(F)F)C1CCN(c2nnc(-c3ccnn3C)c3ccccc23)CC1 [TALADEGIB]	6.3 nM	IC50 (Medulloblastoma cell [2]): 43.5 nM; TGI (Medulloblastoma cell [6]): Active

Now those with a lower IC50 [1], led by results:

IC50 [1]	Structure (SMILES)	other results
1.16 nM	Cc1ccc(-c2nnc(N3CC[C@@H](NC(=O)c4ccc(F)cc4C(F)(F)F)C3)c3ccccc23)cc1	IC50 (Medulloblastoma cell [2]): 20.1 nM
0.17 nM	O=C(N[C@@H]1CCN(c2nnc(-c3ccc(CO)cc3)c3ccccc23)C1)c1ccc(F)cc1C(F)(F)F	bioavailability [3]: 7.4%; clearance [4]: 74.7 mL/min/kg; TGI (Medulloblastoma cell [5]): Active; IC50 (Medulloblastoma cell [2]): 24.6 nM; TGI (Medulloblastoma cell [6]): Active; Ratio IC50 (Mus musculus): 23; half-life [7]: 19.2 min; Vd [8]: 1.47 L/kg; Tmax [9]: 15 min; AUC(0-inf) [10]: 0.33 µM·h; Cmax [11]: 480 nM; AUC(0-inf) [12]: 0.88 µM·h
3.43 nM	O=C(NC1CCN(c2nnc(-c3ccccc3)c3ccccc23)C1)c1ccc(F)cc1C(F)(F)F (racemic)	
0.88 nM	Cc1ccc(-c2nnc(N3CCC(NC(=O)c4ccc(F)cc4C(F)(F)F)C3)c3ccccc23)cc1 (racemic)	
2.93 nM	Cc1ccc(-c2nnc(N3CCC(N(C)C(=O)c4ccc(F)cc4C(F)(F)F)C3)c3ccccc23)cc1 (racemic)	
0.95 nM	O=C(NC1CCN(c2nnc(-c3ccc(CO)cc3)c3ccccc23)C1)c1ccc(F)cc1C(F)(F)F (racemic)	
1.36 nM	CN(C(=O)c1ccc(F)cc1C(F)(F)F)C1CCN(c2nnc(-c3ccc(CO)cc3)c3ccccc23)C1 (racemic)	
2.3 nM	CS(=O)(=O)c1ccc(C(=O)Nc2ccc(Cl)c(-c3ccccn3)c2)c(Cl)c1 [VISMODEGIB]	IC50 (Medulloblastoma cell [2]): 30.4 nM
